Source: patent publication US9844549B2, “2-aminothiazole derivative or salt thereof” (ASTELLAS PHARMA INC., priority 2014, dated 2017)
Where a name gives a salt, the structure may show the parent alone.

Key:
rat isolated bladder = assay: Effect on electrical field stimulation-induced contraction in rat isolated bladder; conditions: AUC of contraction, value before treatment = 100%, SD female rat bladder, read-out: Enhancement rate of extracted bladder contractions (% of pre)
Procedure: Test Example 2: Effect on Electrical Field Stimulation-Induced Contraction in Rat Isolated Bladder
As an effect on the nerve stimulation-dependent bladder contraction in in vitro, the effect of the Example compounds of the present invention in the electrical field stimulation-induced contraction of the rat isolated bladder was measured by the following method. That is, a bladder specimen having a width of about 2 mm and a length of about 10 mm in the longitudinal direction from the bladder isolated from a Sprague-Dawley (SD) female rat (Japan SLC, Inc.) was prepared. The prepared bladder specimen was suspended in an organ bath filled with 10 mL of a Krebs-Henseleite solution. The Krebs-Henseleite solution was aerated at 95% 02 and 5% CO2, and kept at 37° C. After carrying out stabilization at an initial tension of 1 g, the contraction was caused twice with 60 mM KCl. After stabilization of the specimen with a Krebs-Henseleite solution, the contraction was caused by carrying out electrical field stimulation at 20 V with an electrical stimulation device (Nihon Kohden) (a stimulation frequency of 8 Hz, a pulse width of 0.3 msec, and a stimulation time of 10 seconds). By repeating the transmural electrical stimulation at an interval of 2 minutes, a voltage was adjusted to obtain a contraction height of approximately 50% of the contractile response at 20 V. After the contraction by electrical field stimulation had been stabilized, 10 μL of the test substances dissolved in 100% DMSO in advance (final concentrations of 3 μM, 10 μM, and 30 μM) was added thereto. The test substances were cumulatively administered at the following concentrations after the low-concentration contractile response had been stabilized. The response was taken into a personal computer through a PowerLab (registered trademark) (AD Instruments, Inc.), and analyzed by LabChart (registered trademark) (AD Instruments, Inc.). When the area under the response (area under curve, AUC) in each contraction response was calculated and the value before treatment with the test substance was taken as 100%, the enhancement rate (% of pre) of the isolated bladder contractions after treatment with the test substance was calculated.

anesthetized rats = assay: Effect on pelvic nerve stimulation-induced elevation of intravesical pressure in anesthetized rats; format: in vivo; conditions: Rattus norvegicus; 3 mg/kg intravenous; maximum effect within one hour; AUC, pre-treatment = 100%; SD female rats; read-out: Increase rate of intravesical pressure (% of pre)
Procedure: Test Example 3: Effect on Pelvic Nerve Stimulation-Induced Elevation of Intravesical Pressure in Anesthetized Rats
The effect of the Example compounds of the present invention in the pelvic nerve electrical stimulation-induced elevation of intravesical pressure using rats as an action of nerve stimulation-dependent bladder contraction in vivo was measured by the following method. That is, SD female rats (Japan SLC, Inc.) were used and its lower abdomen was dissected at the midline under pentobarbital anesthesia (50 mg/kg ip). After ligating and cutting the ureter on both sides, a cannula (PE-50) for measuring the intravesical pressure was inserted into the bladder from the external urethral opening and fixed by a clip. After injecting about 200 μL of saline through the cannula that had been inserted into the bladder, the other side was connected to a pressure transducer to measure the intravesical pressure. Under a stereoscopic microscope observation, the pelvic nerve in the vicinity of the bladder was peeled and an electrode for nerve stimulation (unique Medical) was placed. The abdominal cavity was filled with mineral oil (MP BIOMEDICALS). After placing in a post-operative stabilization period, the pelvic nerve was subjected to electrical stimulation (stimulation voltage: 10 V, stimulation frequency: 8 Hz, pulse width: 0.3 msec, and stimulation time: 10 seconds) to elicit the elevation of intravesical pressure, using an electrical stimulator (Nihon Kohden). By repeating the electrical stimulation at an interval of 2 minutes while adjusting the voltage, the voltage was adjusted to elicit about 50% to 70% elevation of intravesical pressure elicited at 10 V. Thereafter, by repeating the electrical stimulation at an interval of 10 minutes, the increase in the intravesical pressure by electrical stimulation was stabilized three times or more, and the test substance (an administration amount of 3 mg/kg) was then administered from the catheter detained in the vein at a volume of 1 mL/kg, thus measuring an effect of the elevation of the intravesical pressure of the test substance for 1 hour. The test substance was dissolved in water supplemented with 10% DMSO and 10% Cremophor.
The response was applied to a personal computer through a PowerLab (registered trademark) and analyzed by LabChart (registered trademark). The AUC of each elevation of the intravesical pressure was calculated, the intravesical pressure elevation rate (% of pre) after the treatment with the test substance was calculated by taking an average value of the values measured three times before the treatment with the test substance as 100%, and the maximum effect during a period within one hour after administration of the compound was considered as the effect of the test substance.

SMILES | activity at 10 µM (rat isolated bladder) | response vs control in vivo at 3 mg/kg (anesthetized rats)
CC1CC[C@@H](C)N1Cc1sc(Nc2ncnc(N3CCN(CCC(=O)O)CC3)c2F)nc1-c1cc(F)cc(C(F)(F)F)c1 (stereo in doubt) [Example 8, sodium 3-(4-{6-[(5-{[(2R,5R)-2,5-dimethylpyrrolidin-1-yl]methyl}-4-[3-fluoro-5-(trifluoromethyl)phenyl]-1,3-thiazol-2-yl)amino]-5-fluoropyrimidin-4-yl}piperazin-1-yl)propanoate] | 193% | 178%
Cc1nc(Nc2nc(-c3cc(F)cc(C(F)(F)F)c3)c(CN3[C@H](C)CC[C@H]3C)s2)c(F)c(N2CCN(CCC(=O)O)CC2)n1 [Example 4, sodium 3-(4-{6-[(5-{[(2R,5R)-2,5-dimethylpyrrolidin-1-yl]methyl}-4-[3-fluoro-5-(trifluoromethyl)phenyl]-1,3-thiazol-2-yl)amino]-5-fluoro-2-methylpyrimidin-4-yl}piperazin-1-yl)propanoate] | 127% | 178%
C[C@@H]1CCCN1Cc1sc(Nc2ncnc(N3CCN(CCC(=O)O)CC3)c2F)nc1-c1cc(F)cc(C(F)(F)F)c1 [Example 17] | 199% | 144%
C[C@@H]1CCCN1Cc1sc(Nc2ncnc(N3CCN(CCC(=O)O)CC3)c2F)nc1-c1ccc(Cl)c(C(F)(F)F)c1 [Example 9, 3-(4-{6-[(4-[4-chloro-3-(trifluoromethyl)phenyl]-5-{[(2R)-2-methylpyrrolidin-1-yl]methyl}-1,3-thiazol-2-yl)amino]-5-fluoropyrimidin-4-yl}piperazin-1-yl)propanoic acid trihydrochloride] | 187% | 200%
Cc1nc(Nc2nc(-c3cc(F)cc(C(F)(F)F)c3)c(CN3CCC[C@H]3C)s2)cc(N2CCN(CCC(=O)O)CC2)n1 [Example 3, 3-(4-{6-[(4-[3-fluoro-5-(trifluoromethyl)phenyl]-5-{[(2R)-2-methylpyrrolidin-1-yl]methyl}-1,3-thiazol-2-yl)amino]-2-methylpyrimidin-4-yl}piperazin-1-yl)propanoic acid trihydrochloride] | 136% | 146%
C[C@@H]1CCCN1Cc1sc(Nc2ncnc(N3CCC(OCC(=O)O)CC3)c2F)nc1-c1cc(F)cc(C(F)(F)F)c1 [Example 12, [(1-{5-fluoro-6-[(4-[3-fluoro-5-(trifluoromethyl)phenyl]-5-{[(2R)-2-methylpyrrolidin-1-yl]methyl}-1,3-thiazol-2-yl)amino]pyrimidin-4-yl}piperidin-4-yl)oxy]acetic acid dihydrochloride] | 166% | 152%
Cc1nc(Nc2nc(-c3cc(F)cc(C(F)(F)F)c3)c(CN3CCC[C@H]3C)s2)c(F)c(N2CCN(CCC(=O)O)CC2)n1 [Example 18] | 199% | 153%
CC[C@@H]1CCCN1Cc1sc(Nc2ncnc(N3CCC(OCC(=O)O)CC3)c2F)nc1-c1cc(Cl)cc(C(F)(F)F)c1 [Example 13, [(1-{6-[(4-[3-chloro-5-(trifluoromethyl)phenyl]-5-{[(2R)-2-ethylpyrrolidin-1-yl]methyl}-1,3-thiazol-2-yl)amino]-5-fluoropyrimidin-4-yl}piperidin-4-yl)oxy]acetic acid dihydrochloride] | 127% | 186%
COC[C@@H]1CN(c2ncnc(Nc3nc(-c4ccc(Cl)c(C(F)(F)F)c4)c(CN4CCC[C@H]4C)s3)c2F)CCN1CCC(=O)O [Example 1, 3-[(2S)-4-{6-[(4-[4-chloro-3-(trifluoromethyl)phenyl]-5-{[(2R)-2-methylpyrrolidin-1-yl]methyl}-1,3-thiazol-2-yl)amino]-5-fluoropyrimidin-4-yl}-2-(methoxymethyl)piperazin-1-yl]propanoic acid trihydrochloride] | 120% | 197%
COC[C@@H]1CN(c2ncnc(Nc3nc(-c4cc(F)cc(C(F)(F)F)c4)c(CN4CCC[C@H]4C)s3)c2F)CCN1CCC(=O)O [Example 10, 3-[(2S)-4-{5-fluoro-6-[(4-[3-fluoro-5-(trifluoromethyl)phenyl]-5-{[(2R)-2-methylpyrrolidin-1-yl]methyl}-1,3-thiazol-2-yl)amino]pyrimidin-4-yl}-2-(methoxymethyl)piperazin-1-yl]propanoic acid trihydrochloride] | 271% | 169%
C[C@@H]1CCCN1Cc1sc(Nc2ncnc(N3CCN(CCC(=O)O)CC3)c2F)nc1-c1cc(Cl)cc(C(F)(F)F)c1 [Example 11, 3-(4-{6-[(4-[3-chloro-5-(trifluoromethyl)phenyl]-5-{[(2R)-2-methylpyrrolidin-1-yl]methyl}-1,3-thiazol-2-yl)amino]-5-fluoropyrimidin-4-yl}piperazin-1-yl)propanoic acid trihydrochloride] | 219% | 181%
COc1c(Nc2nc(-c3cc(F)cc(C(F)(F)F)c3)c(CN3CCC[C@H]3C)s2)ncnc1N1CCN(CCC(=O)O)CC1 [Example 91] | 124% | 144%
C[C@@H]1CCCN1Cc1sc(Nc2cc(N3CCN(CCC(=O)O)CC3)ccn2)nc1-c1cc(F)cc(C(F)(F)F)c1 [Example 19] | 161% | 125%
C[C@@H]1CCCN1Cc1sc(Nc2ncnc(N3CC[C@H](N(C)CCC(=O)O)C3)c2F)nc1-c1ccc(Cl)c(C(F)(F)F)c1 [Example 53] | – | 145%
CC[C@@H]1CCCN1Cc1sc(Nc2ncnc(N3CC[C@H](N(C)CCC(=O)O)C3)c2F)nc1-c1cc(Cl)cc(C(F)(F)F)c1 [Example 69] | – | 150%
C[C@@H]1CCCN1Cc1sc(Nc2cc(N3CCN(CCC(=O)O)CC3)ncn2)nc1-c1cc(F)cc(C(F)(F)F)c1 [Example 14] | 169% | 121%
